Reference: PubChem BioAssay (NCI)
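Compound exposure: 48 hours, 5 concentrations, 96-well plates. The concentration for full growth arrest is given as TGI.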

How the values were obtained:
Assay in all cases: NCI anticancer screen, dose series, 48 h
MALME-3M melanoma = test system: MALME-3M melanoma
UACC-257 melanoma = test system: UACC-257 melanoma
SF-539 CNS = test system: SF-539 CNS
NCI-H23 lung = test system: NCI-H23 lung
TK-10 renal = test system: TK-10 renal
SNB-75 CNS = test system: SNB-75 CNS
SF-268 CNS = test system: SF-268 CNS
BT-549 breast = test system: BT-549 breast
EKVX NSCLC = test system: EKVX NSCLC
COLO 205 colon = test system: COLO 205 colon
NCI-H460 lung = test system: NCI-H460 lung
786-0 renal = test system: 786-0 renal
K-562 leukemia = test system: K-562 leukemia
CCRF-CEM leukemia = test system: CCRF-CEM leukemia
SK-MEL-28 melanoma = test system: SK-MEL-28 melanoma
A549 NSCLC = test system: A549 NSCLC
RXF 393 renal = test system: RXF 393 renal
OVCAR-3 ovarian = test system: OVCAR-3 ovarian
SNB-19 CNS = test system: SNB-19 CNS
OVCAR-5 ovarian = test system: OVCAR-5 ovarian
OVCAR-8 ovarian = test system: OVCAR-8 ovarian
T-47D breast = test system: T-47D breast
DU-145 prostate = test system: DU-145 prostate
HOP-62 NSCLC = test system: HOP-62 NSCLC
MDA-MB-435 = test system: MDA-MB-435
LOX IMVI melanoma = test system: LOX IMVI melanoma
NCI-H522 lung = test system: NCI-H522 lung
MDA-MB-231 breast = test system: MDA-MB-231 breast
ACHN renal = test system: ACHN renal
SR leukemia = test system: SR leukemia
HCT-116 colon = test system: HCT-116 colon
MCF7 breast = test system: MCF7 breast
RPMI-8226 leukemia = test system: RPMI-8226 leukemia
HCT-15 colon = test system: HCT-15 colon
NCI-H226 lung = test system: NCI-H226 lung
NCI/ADR-RES ovarian = test system: NCI/ADR-RES ovarian
SK-OV-3 ovarian = test system: SK-OV-3 ovarian
M14 melanoma = test system: M14 melanoma
HT29 colon = test system: HT29 colon
SF-295 CNS = test system: SF-295 CNS
HCC-2998 colon = test system: HCC-2998 colon
OVCAR-4 ovarian = test system: OVCAR-4 ovarian
UACC-62 melanoma = test system: UACC-62 melanoma
MDA-N = test system: MDA-N
U251 CNS = test system: U251 CNS
SN12C renal = test system: SN12C renal
SK-MEL-5 melanoma = test system: SK-MEL-5 melanoma
PC-3 prostate = test system: PC-3 prostate
UO-31 renal = test system: UO-31 renal
HS 578T breast = test system: HS 578T breast
SW-620 colon = test system: SW-620 colon
HL-60(TB) leukemia = test system: HL-60(TB) leukemia
MOLT-4 leukemia = test system: MOLT-4 leukemia
HOP-92 NSCLC = test system: HOP-92 NSCLC
KM12 colon = test system: KM12 colon
IGROV1 ovarian = test system: IGROV1 ovarian
A498 renal = test system: A498 renal
SK-MEL-2 melanoma = test system: SK-MEL-2 melanoma
CAKI-1 renal = test system: CAKI-1 renal

CCOC1NC(=O)Oc2cc3ccccc3cc21 (stereo not drawn)
TGI (MALME-3M melanoma): > 100 µM
TGI (UACC-257 melanoma): > 100 µM
TGI (SF-539 CNS): > 100 µM
TGI (NCI-H23 lung): > 100 µM
TGI (TK-10 renal): > 100 µM
TGI (SNB-75 CNS): > 100 µM
TGI (SF-268 CNS): > 100 µM
TGI (BT-549 breast): > 100 µM
TGI (EKVX NSCLC): > 100 µM
TGI (COLO 205 colon): > 100 µM
TGI (NCI-H460 lung): > 100 µM
TGI (786-0 renal): > 100 µM
TGI (K-562 leukemia): > 100 µM
TGI (CCRF-CEM leukemia): > 100 µM
TGI (SK-MEL-28 melanoma): > 100 µM
TGI (A549 NSCLC): > 100 µM
TGI (RXF 393 renal): > 100 µM
TGI (OVCAR-3 ovarian): > 100 µM
TGI (SNB-19 CNS): > 100 µM
TGI (OVCAR-5 ovarian): > 100 µM
TGI (OVCAR-8 ovarian): > 100 µM
TGI (T-47D breast): > 100 µM
TGI (DU-145 prostate): > 100 µM
TGI (HOP-62 NSCLC): > 100 µM
TGI (MDA-MB-435): > 100 µM
TGI (LOX IMVI melanoma): > 100 µM
TGI (NCI-H522 lung): > 100 µM
TGI (MDA-MB-231 breast): > 100 µM
TGI (ACHN renal): > 100 µM
TGI (SR leukemia): > 100 µM
TGI (HCT-116 colon): > 100 µM
TGI (MCF7 breast): > 100 µM
TGI (RPMI-8226 leukemia): > 100 µM
TGI (HCT-15 colon): > 100 µM
TGI (NCI-H226 lung): > 100 µM
TGI (NCI/ADR-RES ovarian): > 100 µM
TGI (SK-OV-3 ovarian): > 100 µM
TGI (M14 melanoma): > 100 µM
TGI (HT29 colon): > 100 µM
TGI (SF-295 CNS): > 100 µM
TGI (HCC-2998 colon): > 100 µM
TGI (OVCAR-4 ovarian): > 100 µM
TGI (UACC-62 melanoma): > 100 µM
TGI (MDA-N): > 100 µM
TGI (U251 CNS): > 100 µM
TGI (SN12C renal): > 100 µM
TGI (SK-MEL-5 melanoma): > 100 µM
TGI (PC-3 prostate): > 100 µM
TGI (UO-31 renal): > 100 µM
TGI (HS 578T breast): > 100 µM
TGI (SW-620 colon): > 100 µM
TGI (HL-60(TB) leukemia): > 100 µM
TGI (MOLT-4 leukemia): > 100 µM
TGI (HOP-92 NSCLC): 82.8 µM
TGI (KM12 colon): > 100 µM
TGI (IGROV1 ovarian): > 100 µM

COC1=C(Cl)C(=O)c2c(O)ccc(O)c2C1=O
TGI (MALME-3M melanoma): 1.1 µM
TGI (UACC-257 melanoma): 3.41 µM
TGI (SF-539 CNS): 1.53 µM
TGI (NCI-H23 lung): 4.62 µM
TGI (TK-10 renal): 2.4 µM
TGI (SNB-75 CNS): 17.1 µM
TGI (SF-268 CNS): 6.25 µM
TGI (BT-549 breast): 3.31 µM
TGI (EKVX NSCLC): 10.6 µM
TGI (COLO 205 colon): 0.53 µM
TGI (NCI-H460 lung): 24.4 µM
TGI (786-0 renal): 0.864 µM
TGI (A498 renal): 2.63 µM
TGI (CCRF-CEM leukemia): 0.213 µM
TGI (SK-MEL-28 melanoma): 6.73 µM
TGI (A549 NSCLC): 19.3 µM
TGI (RXF 393 renal): 2.69 µM
TGI (OVCAR-3 ovarian): 1.04 µM
TGI (SNB-19 CNS): 17.1 µM
TGI (OVCAR-5 ovarian): 7.49 µM
TGI (OVCAR-8 ovarian): 4.78 µM
TGI (T-47D breast): 3.61 µM
TGI (DU-145 prostate): 6.83 µM
TGI (HOP-62 NSCLC): 2.31 µM
TGI (MDA-MB-435): 3.13 µM
TGI (LOX IMVI melanoma): 3.63 µM
TGI (NCI-H522 lung): 0.564 µM
TGI (MDA-MB-231 breast): 3.19 µM
TGI (ACHN renal): 2.31 µM
TGI (SR leukemia): 1.3 µM
TGI (HCT-116 colon): 1.34 µM
TGI (MCF7 breast): 3.29 µM
TGI (RPMI-8226 leukemia): 1.45 µM
TGI (HCT-15 colon): 3.23 µM
TGI (NCI-H226 lung): 26.1 µM
TGI (NCI/ADR-RES ovarian): 2.32 µM
TGI (SK-OV-3 ovarian): 29.4 µM
TGI (M14 melanoma): 1.28 µM
TGI (HT29 colon): 11.8 µM
TGI (SF-295 CNS): 20.3 µM
TGI (SK-MEL-2 melanoma): 3.25 µM
TGI (HCC-2998 colon): 27.3 µM
TGI (OVCAR-4 ovarian): 3.66 µM
TGI (UACC-62 melanoma): 4.12 µM
TGI (MDA-N): 4.8 µM
TGI (U251 CNS): 11.9 µM
TGI (SN12C renal): 2.74 µM
TGI (SK-MEL-5 melanoma): 2.75 µM
TGI (PC-3 prostate): 9.17 µM
TGI (UO-31 renal): 3.71 µM
TGI (HS 578T breast): 4.96 µM
TGI (SW-620 colon): 0.46 µM
TGI (MOLT-4 leukemia): 0.489 µM
TGI (HOP-92 NSCLC): 3.61 µM
TGI (KM12 colon): 23.5 µM
TGI (IGROV1 ovarian): 3.72 µM
TGI (CAKI-1 renal): 1.6 µM
